Results from patent US20120121540A1 (priority 2007, published 2012).

Experiment: not given
Conditions: patients treated at currently recommended doses; cited from earlier work
For `NC(=O)c1ncn([C@@H]2O[C@H](CO)[C@@H](O)[C@H]2O)n1` [Ribavirin, ribavirin], the “patients with significant hemolysis” value is given as 10-20%.

Experiment: HCV replicon assay (luciferase reporter, ET cell line)
Type: cell-based
Conditions: Hepatitis C virus, HCV replicon luciferase activity in ET cells
Method in brief: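 ET cells carry a stable luciferase-ubiquitin-neo/NS3-5B subgenomic HCV replicon with adaptive mutations. Compounds (0.1 nM to […], 0.5% DMSO) were added 24 h after plating, and luciferase was read 48-72 h later. EC50 came from 10-point 2-fold dilutions fitted to a Hill equation; TC50 was measured in parallel by WST-1.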
`COc1ccc(F)c(C2=CCN(C(=O)c3nc4c(C(F)(F)F)cc(-c5ccoc5)cn4c3Cl)CC2)c1F` [Compound 616, (3-Chloro-6-furan-3-yl-8-trifluoromethyl-imidazo[1,2-a]pyridin-2-yl)-[4-(2,6-difluoro-3-methoxy-phenyl)-3,6-dihydro-2H-pyridin-1-yl]-methanone] gave an inhibition at 10 µM of 64.9%. With `O=C(c1nc2c(C(F)(F)F)cc(-c3ccccc3)cn2c1Br)N1CCC(c2cccc(F)c2)C1` (stereo not drawn) [Compound 640, (3-Bromo-6-phenyl-8-trifluoromethyl-imidazo[1,2-a]pyridin-2-yl)-[3-(3-fluoro-phenyl)-pyrrolidin-1-yl]-methanone] the inhibition at 10 µM was 88.1%. Work on `O=C(NCc1cccs1)c1nc2c(C(F)(F)F)cc(-c3cccc(F)c3)cn2c1Br` [Compound 367, 3-bromo-6-(3-fluoro-phenyl)-8-trifluoromethyl-imidazo[1,2-a]pyridine-2-carboxylic acid (thiophen-2-ylmethyl)-amide] yielded an inhibition at 10 µM of 96.2%. In the case of `O=C(NCc1ccc(N2CCOCC2)cc1)c1nc2c(C(F)(F)F)cc(-c3ccco3)cn2c1Cl` [Compound 212, 3-Chloro-6-furan-2-yl-8-trifluoromethyl-imidazo[1,2-a]pyridine-2-carboxylic Acid 4-morpholin-4-yl-benzylamide], the inhibition at 10 µM is reported as 56.7%. `O=C(NCc1cccs1)c1nc2c(C(F)(F)F)cc(-c3cccc(F)c3)cn2c1CN1CCOCC1` [Compound 364, 6-(3-Fluoro-phenyl)-3-morpholin-4-ylmethyl-8-trifluoromethyl-imidazo[1,2-a]pyridine-2-carboxylic Acid (thiophen-2-ylmethyl)-amide] showed an inhibition at 10 µM of 5.3%.
